Patent publication US12331224B2, “Two-part epoxy compositions for adherent coatings of storage articles” (SWIMC LLC, priority 2019, dated 2025)

Tests used:
MCF-7, clone WS8, cells = assay: MCF-7 cell proliferation assay of estrogenic agonist activity; type: cell-based, human; conditions: logarithmic (base 10) Relative Proliferative Effect in MCF-7 assay; expected or measured values
Source text: As used herein, the terms “estrogenic agonist activity” or “estrogenic activity” refer to the ability of a compound to mimic hormone-like activity through interaction with an endogenous estrogen receptor, typically an endogenous human estrogen receptor. […] The MCF-7 assay uses MCF-7, clone WS8, cells to measure whether and to what extent a substance induces cell proliferation via estrogen receptor (ER)-mediated pathways. The method is described in “Test Method Nomination: MCF-7 Cell Proliferation Assay of Estrogenic agonist activity” submitted for validation by CertiChem, Inc. to the National Toxicology Program Interagency Center for the Evaluation of Alternative Toxicological Methods (NICEA™) on Jan. 19, 2006 (available online at http://iccvam.niehs.nih.gov/methods/endocrine/endodocs/SubmDoc.pdf). As a brief summary of the assay, MCF-7, clone WS8, cells are maintained at 37° C. in RMPI (or Roswell Park Memorial Institute medium) containing Phenol Red (e.g., GIBCO Catalog Number 11875119) and supplemented with the indicated additives for routine culture. An aliquot of cells maintained at 37° C. are grown for 2 days in phenol-free media containing 5% charcoal stripped fetal bovine serum in a 25 cm^2 tissue culture flask. Using a robotic dispenser such as an epMotion 5070 unit, MCF-7 cells are then seeded at 400 cells per well in 0.2 ml of hormone-free culture medium in Corning 96-well plates. The cells are adapted for 3 days in the hormone-free culture medium prior to adding the chemical to be assayed for estrogenic agonist activity. The media containing the test chemical is replaced daily for 6 days. At the end of the 7-day exposure to the test chemical, the media is removed, the wells are washed once with 0.2 ml of HBSS (Hanks' Balanced Salt Solution), and then assayed to quantify amounts of DNA per well using a micro-plate modification of the Burton diphenylamine (DPA) assay, which is used to calculate the level of cell proliferation.
RPE is the ratio between the EC50 of the test chemical and the EC50 of the control substance 17-beta estradiol times 100, where EC50 is “effective concentration 50%” or half-maximum stimulation concentration for cell proliferation measured as total DNA in the MCF-7 assay.
Tables 1 and 2 provided below include some compounds and their expected or measured logarithmic RPE values in the MCF-7 assay.

estrogen receptor = target: T1, estrogen receptor (Homo sapiens, UniProt P03372); assay: suitable in vitro assay of estrogenic agonist activity correlated to the MCF-7 assay; conditions: suitable in vitro assay correlated to MCF-7 assay
T1 sequence (P03372 1-595): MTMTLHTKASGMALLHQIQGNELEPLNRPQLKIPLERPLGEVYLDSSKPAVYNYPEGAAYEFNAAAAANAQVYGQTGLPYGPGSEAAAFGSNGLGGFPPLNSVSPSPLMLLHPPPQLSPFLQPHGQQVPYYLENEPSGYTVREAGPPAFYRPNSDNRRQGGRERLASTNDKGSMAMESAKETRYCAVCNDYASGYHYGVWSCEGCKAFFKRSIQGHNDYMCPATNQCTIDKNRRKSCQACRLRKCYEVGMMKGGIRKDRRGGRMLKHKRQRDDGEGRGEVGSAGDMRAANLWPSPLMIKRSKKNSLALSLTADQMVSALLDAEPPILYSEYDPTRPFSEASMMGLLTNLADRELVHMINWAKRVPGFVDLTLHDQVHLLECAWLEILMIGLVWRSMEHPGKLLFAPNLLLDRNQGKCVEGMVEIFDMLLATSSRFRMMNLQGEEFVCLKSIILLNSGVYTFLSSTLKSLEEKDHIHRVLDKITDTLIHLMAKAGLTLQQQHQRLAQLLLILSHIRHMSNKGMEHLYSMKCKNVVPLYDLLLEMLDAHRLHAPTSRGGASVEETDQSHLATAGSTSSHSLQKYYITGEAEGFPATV
Source text: While not intending to be bound by any theory, it is believed that the positioning of one or more R^1 groups at an ortho position relative to the oxygen atom depicted in Formulas (I) and (IA) may be particularly beneficial in reducing or eliminating estrogenic agonist activity.

[1] = Gel-time comparison of two-part epoxy compositions with curing agents; type: physicochemical; conditions: for Gel time: 1:1 stoichiometric mix, 100 g; for Difference in gel time: TMBPFDGE minus BADGE; for Gel-Time % increase: from BADGE to TMBPFDGE
Protocol: Two-part epoxy compositions of bisphenol A diglycidyl ether (BADGE) (e.g., molecular weight of approximately 340 g/mol) and tetramethyl bisphenol F diglycidyl ether (TMBPFDGE) were prepared and mixed with various amine-based curing agents to compare the respective gel times of the compositions. The BADGE and TMBPFDGE monomer epoxides (e.g., molecular weight of approximately 340.4 g/mol and 368.6 g/mol respectively) were reduced to approximately 90% weight solids with xylene solvent. Gel times were measured using 100 g mass samples with a Paul N. Gardner Co, Inc. gel time recorder model S-5154. The gel-time values reported are in minutes, along with the difference between BADGE and TMBPFDGE compositions using the same curing agent, and the percent increase in gel time from BADGE to TMBPFDGE.

[2] = curing agent ANACAMIDE 375A (polyamide)
[3] = curing agent ANACAMINE 503 (amidoamine)
[4] = curing agent ANACAMINE 2393 (cycloaliphatic amine)
[5] = curing agent CARDOLITE 3040 (phenalkamide)
[6] = curing agent CARDOLITE NC541 (phenalkamine)
[7] = curing agent GABEPRO GPM-830CB (mercaptan)
[8] = curing agent TETA, epoxy 90% solids in xylene

Cc1cc(Cc2cc(C)cc(C3(C)CCCCC3)c2O)c(O)c(C2(C)CCCCC2)c1 [2,2′-Methylenebis(6-(1-methylcyclohexyl)-4-methylphenol]
Log RPE (MCF-7, clone WS8, cells): less than −4

Cc1cc(Cc2cc(C)cc(C(C)(C)C)c2O)c(O)c(C(C)(C)C)c1 [2,2′-methylenebis(4-methyl-6-t-butylphenol)]
estrogenic agonist activity (estrogen receptor): do not exhibit appreciable estrogenic agonist activity

CC(C)(C)c1cc(O)c(C(C)(C)C)cc1O [2,5-di-t-butylhydroquinone]
estrogenic agonist activity (estrogen receptor): do not exhibit appreciable estrogenic agonist activity

CCCC(c1cc(C(C)(C)C)c(O)cc1C)c1cc(C(C)(C)C)c(O)cc1C [4,4′-butylidenebis(2-t-butyl-5-methylphenol)]
estrogenic agonist activity (estrogen receptor): do not exhibit appreciable estrogenic agonist activity

CC(C)(C)c1cc(Cc2cc(C(C)(C)C)c(O)c(C(C)(C)C)c2)cc(C(C)(C)C)c1O [4,4′-methylenebis(2,6-di-t-butylphenol)]
estrogenic agonist activity (estrogen receptor): do not exhibit appreciable estrogenic agonist activity

Cc1cc(Cc2cc(C)c(O)c(C)c2)cc(C)c1O [4,4′-methylenebis(2,6-dimethylphenol)]
estrogenic agonist activity (estrogen receptor): do not exhibit appreciable estrogenic agonist activity

C[C@]12CC[C@@H]3c4ccc(O)cc4CC[C@H]3[C@@H]1CC[C@@H]2O [17β-estradiol]
Log RPE (MCF-7, clone WS8, cells): 2.00

CC(C)(c1ccc(OCC2CO2)cc1)c1ccc(OCC2CO2)cc1 (centres unmarked) [BADGE, bisphenol A diglycidyl ether, reference compound]
Gel time [1, 2]: 312 min
Gel time [1, 3]: 211 min
Gel time [1, 4]: 55 min
Gel time [1, 5]: 198 min
Gel time [1, 6]: 86 min
Gel time [1, 7]: 16 min
Gel time ([1]; curing agent PACM): 275 min
Gel time [1, 8]: 74 min

Oc1ccc(Cc2ccc(O)cc2)cc1 [Bisphenol F]
Log RPE (MCF-7, clone WS8, cells): −2

O=S(=O)(c1ccc(O)cc1)c1ccc(O)cc1 [Bisphenol S]
Log RPE (MCF-7, clone WS8, cells): −2

Cc1cc(Cc2cc(C)c(OCC3CO3)c(C)c2)cc(C)c1OCC1CO1 (centres unmarked) [TMBPFDGE, tetramethyl bisphenol F diglycidyl ether]
Difference in gel time [1, 2]: 454 min
Difference in gel time [1, 3]: 469 min
Difference in gel time [1, 4]: 343 min
Difference in gel time [1, 5]: 370 min
Difference in gel time [1, 6]: 206 min
Difference in gel time [1, 7]: 82 min
Difference in gel time ([1]; curing agent PACM): 510 min
Difference in gel time ([1]; curing agent TETA): 333 min
Gel time [1, 2]: 766 min
Gel time [1, 3]: 680 min
Gel time [1, 4]: 398 min
Gel time [1, 5]: 568 min
Gel time [1, 6]: 292 min
Gel time [1, 7]: 98 min
Gel time ([1]; curing agent PACM): 785 min
Gel time [1, 8]: 407 min
Gel-Time % increase [1, 2]: 146%
Gel-Time % increase [1, 3]: 222%
Gel-Time % increase [1, 4]: 624%
Gel-Time % increase [1, 5]: 187%
Gel-Time % increase [1, 6]: 240%
Gel-Time % increase [1, 7]: 513%
Gel-Time % increase ([1]; curing agent PACM): 185%
Gel-Time % increase ([1]; curing agent TETA): 450%
